Data taken from patent US20210188843A1, “QUINOLINE COMPOUNDS AND THEIR PREPARATION AND USE AS ANTIMALARIAL AGENTS” (The United States of America,as represented by the …, priority 2018, published 2021).
≈ marks a conversion by molar mass, not a printed value. Where two headings read alike, the source gives them in different places.

What was measured:
[1] = test system: Asexual parasites of P. falciparum strain 3D7; experiment: In vitro drug activity on asexual parasites (SYBR Green assay); format: cell-based; details: Plasmodium falciparum, read-out: Asexual EC50
Outline: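 3D7 asexual cultures at 0.5% parasitemia and 2% hematocrit were exposed to drug (DMSO <0.5%) for 72 h under standard culture conditions, in duplicate with no-drug and RBC-only controls. After freeze-thaw lysis, SYBR Green I lysis buffer was added for 30 min at room temperature; fluorescence was read at 490 nm excitation/520 nm emission.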

[2] = Microsomal stability (rat); format: in vitro ADME; details: rat microsomes
Solubility pH 7.4 = format: physicochemical; details: aqueous buffer
PAMPA permeability = format: in vitro ADME
[3] = Table 2, P. falciparum 3D7 asexual stage, 72 h
[4] = Table 2, read-out: Microsomal Stability (rat) T1/2
[5] = Table 1, P. falciparum 3D7 asexual stage, 72 h
[6] = Table 1, read-out: Microsomal Stability (rat) T1/2

Compound | EC50 [1, 5] [nM] | solubility (Solubility pH 7.4; Table 1) [µg/mL] | half-life [2, 6] [min] | other results
N=c1ccc2cnc3ccc(-c4ccc(Cl)cc4)cc3c2n1-c1cccc(Cl)c1 | – | – | – | EC50 [1, 3]: 178 nM; half-life [2, 4]: > 30 min; solubility (Solubility pH 7.4; Table 2): 20.7 µg/mL (≈ 49.7 µM); Papp (PAMPA permeability; Table 2): 1240 ×10⁻⁶ cm/s
CCC(=O)/N=c1/ccc2cnc3ccc(-c4ccc(Cl)cc4)cc3c2n1-c1ccc(C(=O)NC2CC2)cc1 | – | – | – | EC50 [1, 3]: 47.5 nM; half-life [2, 4]: 4.8 min; solubility (Solubility pH 7.4; Table 2): < 1 µg/mL; Papp (PAMPA permeability; Table 2): 445 ×10⁻⁶ cm/s
Cn1c(=N)n(-c2cncnc2)c2c3cc(-c4cccc(F)c4)ccc3ncc21 | – | – | – | EC50 ([1]; 3D7, 72 h): 169 nM; half-life ([2]; Table 3, read-out: Microsomal Stability (rat) T1/2): > 30 min; solubility (Solubility pH 7.4; Table 3): 24.9 µg/mL (≈ 67.2 µM); Papp (PAMPA permeability; Table 3): 60.6 ×10⁻⁶ cm/s
COc1ccc(-c2ccc3ncc4c(c3c2)n(-c2nccnc2C)c(=N)n4C)cc1OC | – | – | – | EC50 ([1]; Table 3, P. falciparum 3D7 asexual stage, 72 h): 58 nM; solubility (Solubility pH 7.4; Table 3): > 63 µg/mL; Papp (PAMPA permeability; Table 3): 1240 ×10⁻⁶ cm/s
Cn1c(=N)n(-c2ccccc2O)c2c3cc(-c4ccc(Cl)cc4)ccc3ncc21 [Compound 83, 2-(8-(4-chlorophenyl)-2-imino-3-methyl-2,3-dihydro-1H-imidazo[4,5-c]quinolin-1-yl)phenol] | 593 | < 1 | – | Papp (PAMPA permeability; Table 1): 859 ×10⁻⁶ cm/s
Cc1ccc(C(N)=O)cc1-n1c(=N)n(C)c2cnc3ccc(-c4ccc(Cl)cc4)cc3c21 [Compound 92, 3-(8-(4-chlorophenyl)-2-imino-3-methyl-2,3-dihydro-1H-imidazo[4,5-c]quinolin-1-yl)-4-methylbenzamide] | – | > 44 | > 30 | Papp (PAMPA permeability; Table 1): 2 ×10⁻⁶ cm/s
CCC(=O)N1CCC(n2c(=N)n(C)c3cnc4ccc(-c5ccc(Cl)cc5)cc4c32)CC1 [Compound 104, 1-(4-(8-(4-chlorophenyl)-2-imino-3-methyl-2,3-dihydro-1H-imidazo[4,5-c]quinolin-1-yl)piperidin-1-yl)propan-1-one] | 411 | > 44 | > 30 | –
Cc1cc(NCCN(C)C)c(C#N)cc1-n1c(=N)n(C)c2cnc3ccc(-c4ccc(Cl)cc4)cc3c21 [Compound 113, 5-(8-(4-chlorophenyl)-2-imino-3-methyl-2,3-dihydro-1H-imidazo[4,5-c]quinolin-1-yl)-2-((2-(dimethylamino)ethyl)amino)-4-methylbenzonitrile] | 546 | > 50 | > 30 | –
Cc1cc(N2CC(C)OC(C)C2)c(C#N)cc1-n1c(=N)n(C)c2cnc3ccc(-c4ccc(Cl)cc4)cc3c21 (stereo not drawn) [Compound 117, 5-(8-(4-chlorophenyl)-2-imino-3-methyl-2,3-dihydro-1H-imidazo[4,5-c]quinolin-1-yl)-2-(2,6-dimethylmorpholino)-4-methylbenzonitrile] | 373 | < 1 | > 30 | –
Cc1ccc(S(C)(=O)=O)cc1-n1c(=N)n(C)c2cnc3ccc(-c4ccc(Cl)cc4)cc3c21 [Compound 122, 8-(4-chlorophenyl)-3-methyl-1-(2-methyl-5-(methylsulfonyl)phenyl)-1,3-dihydro-2H-imidazo[4,5-c]quinolin-2-imine] | 1610 | > 47 | > 30 | –
Cc1nc(N2CCOCC2)c(C#N)cc1-n1c(=N)n(C)c2cnc3ccc(-c4cccc(F)c4)cc3c21 [Compound 142, 5-(8-(3-fluorophenyl)-2-imino-3-methyl-2,3-dihydro-1H-imidazo[4,5-c]quinolin-1-yl)-6-methyl-2-morpholinonicotinonitrile] | 225 | > 49 | > 30 | –
Cc1ccc(C#N)cc1-n1c(=N)n(C)c2cnc3ccc(C#Cc4ccccc4)cc3c21 [Compound 154, 3-(2-imino-3-methyl-8-(phenylethynyl)-2,3-dihydro-H-imidazo[4,5-c]quinolin-1-yl)-4-methylbenzonitrile] | 1750 | 1.4 (≈ 3.39 µM) | > 30 | –

The next lines start with results.

EC50 [1, 5] [nM] | solubility (Solubility pH 7.4; Table 1) [µg/mL] | half-life [2, 6] [min] | Compound | other results
163 | > 42 | > 30 | COc1ccc(-c2ccc3ncc4c(c3c2)n(-c2cc(C#N)ccc2C)c(=N)n4C)cn1 [Compound 103, 3-(2-imino-8-(6-methoxypyridin-3-yl)-3-methyl-2,3-dihydro-1H-imidazo[4,5-c]quinolin-1-yl)-4-methylbenzonitrile] | –
55.2 | < 1 | > 30 | Cc1cc(N2CCC(O)CC2)c(C#N)cc1-n1c(=N)n(C)c2cnc3ccc(-c4ccc(Cl)cc4)cc3c21 [Compound 114, 5-(8-(4-chlorophenyl)-2-imino-3-methyl-2,3-dihydro-1H-imidazo[4,5-c]quinolin-1-yl)-2-(4-hydroxypiperidin-1-yl)-4-methylbenzonitrile] | –
125 | > 55 | > 30 | Cc1cc(N2CCN(CCO)CC2)c(C#N)cc1-n1c(=N)n(C)c2cnc3ccc(-c4ccc(Cl)cc4)cc3c21 [Compound 115, 5-(8-(4-chlorophenyl)-2-imino-3-methyl-2,3-dihydro-1H-imidazo[4,5-c]quinolin-1-yl)-2-(4-(2-hydroxyethyl)piperazin-1-yl)-4-methylbenzonitrile] | –
135 | < 1 | > 30 | Cc1cc(N2CCN(S(C)(=O)=O)CC2)c(C#N)cc1-n1c(=N)n(C)c2cnc3ccc(-c4ccc(Cl)cc4)cc3c21 [Compound 118, 5-(8-(4-chlorophenyl)-2-imino-3-methyl-2,3-dihydro-1H-imidazo[4,5-c]quinolin-1-yl)-4-methyl-2-(4-(methylsulfonyl)piperazin-1-yl)benzonitrile] | –
88.6 | < 1 | > 30 | Cc1cc(NS(C)(=O)=O)c(C#N)cc1-n1c(=N)n(C)c2cnc3ccc(-c4ccc(Cl)cc4)cc3c21 [Compound 123, N-(4-(8-(4-chlorophenyl)-2-imino-3-methyl-2,3-dihydro-1H-imidazo[4,5-c]quinolin-1-yl)-2-cyano-5-methylphenyl)methanesulfonamide] | –
217 | 1.9 (≈ 3.64 µM) | > 30 | Cc1cc(N2CCNC(C)C2)c(C#N)cc1-n1c(=N)n(C)c2cnc3ccc(-c4ccc(Cl)cc4)cc3c21 (stereo not drawn) [Compound 124, 5-(8-(4-chlorophenyl)-2-imino-3-methyl-2,3-dihydro-1H-imidazo[4,5-c]quinolin-1-yl)-4-methyl-2-(3-methylpiperazin-1-yl)benzonitrile] | –
14.5 | 2.2 (≈ 3.99 µM) | > 30 | Cc1cc(N2CCN(C(N)=O)CC2)c(C#N)cc1-n1c(=N)n(C)c2cnc3ccc(-c4ccc(Cl)cc4)cc3c21 [Compound 126, 4-(4-(8-(4-chlorophenyl)-2-imino-3-methyl-2,3-dihydro-1H-imidazo[4,5-c]quinolin-1-yl)-2-cyano-5-methylphenyl)piperazine-1-carboxamide] | –
159 | > 50 | > 30 | Cc1cc(N2CCN(C)CC2)c(C#N)cc1-n1c(=N)n(C)c2cnc3ccc(-c4cccc(F)c4)cc3c21 [Compound 144, 5-(8-(3-fluorophenyl)-2-imino-3-methyl-2,3-dihydro-1H-imidazo[4,5-c]quinolin-1-yl)-4-methyl-2-(4-methylpiperazin-1-yl)benzonitrile] | –
62.7 | 14.5 (≈ 25.7 µM) | 21.2 | COC(=O)/N=c1\n(C)c2cnc3ccc(-c4cccc(F)c4)cc3c2n1-c1cc(C#N)c(N2CCN(C)CC2)cc1C [Compound 146, Methyl (E)-(1-(5-cyano-2-methyl-4-(4-methylpiperazin-1-yl)phenyl)-8-(3-fluorophenyl)-3-methyl-1,3-dihydro-2H-imidazo[4,5-c]quinolin-2-ylidene)carbamate] | –
